According to patent US4327100A, “2-(Alkoxy-phenyl)-imidazo(4,5-b)pyridines and salts thereof” (Boehringer Ingelheim GmbH, priority 1979, dated 1982):

Assays:
Format in all cases: in vivo
[1] = system: anesthetized cat; assay: Effect on blood pressure and positive inotropic activity in the anesthetized cat; settings: 2.0 mg/kg i.v., average value, at least 3 cats
Protocol: 1. Determination of the effect on blood pressure and of the positive inotropic activity in the anesthetized cat
The test was performed on cats which were anesthetized with pentobarbital sodium (40 mg/kg i.p.). The animals breathed spontaneously. The arterial blood pressure was measured in the aorta abdominalis by a Statham pressure transducer (P 23 Dc). The positive inotropic effect was determined by measuring the pressure in the left ventricle by means of a catheter tip manometer (Millar PC 360 A). The contractility parameter (dp/dtmax) was registered by means of an analog differentiating circuit.
The test compound was injected into the vena femoralis. Physiological sodium chloride solution or polydiol 200 was used as solvent. Each substance was tested in at least 3 cats, dose 2 mg/kg i.v.

[2] = Acute toxicity in white mice after oral administration; settings: mouse, in vivo, single oral dose 300 mg/kg, observation time 14 days
Protocol: (§1) The acute toxicity was determined in white mice after oral administration of a single dose of 300 mg/kg (observation time: 14 days).

[3] = system: white mice; assay: as above; settings: single oral dose 300 mg/kg, observation time 14 days
Protocol: as §1

| SMILES | Change in blood pressure, second value of the printed pair (diastolic, not labelled in the patent) [1] [mmHg] | LD50 at 336 h [2] [mg/kg] | animals died [3] |
| --- | --- | --- | --- |
| COc1ccc(-c2nc3ncccc3[nH]2)c(OCC[S+]([O-])c2ccc(Cl)cc2)c1 (centres unmarked) [B, 2-{2-[2-(4-Chlorophenylsulfinyl)-ethoxy]-4-methoxyphenyl}-imidazo-[4,5-b]pyridine] | 42 | > 300 | 0 out of 6 |
| COc1ccc(-c2nc3ncccc3[nH]2)c(OCC[S+]([O-])c2ccc(C)cc2)c1 (centres unmarked) [C, 2-{2-[2-(4-Methylphenylsulfinyl)-ethoxy]-4-methoxyphenyl}-imidazo[4,5-b]pyridine] | 45 | > 300 | 0 out of 6 |
| COc1ccc(-c2nc3ncccc3[nH]2)c(OCC[S+]([O-])c2ccccc2)c1 (centres unmarked) [A, 2-[2-(2-Phenylsulfinyl-ethoxy)-4-methoxyphenyl]imidazo[4,5-b]pyridine] | 20 | – | – |
| COc1ccc(-c2nc3ncccc3[nH]2)c(OCC[S+]([O-])c2ccc([N+](=O)[O-])cc2)c1 (centres unmarked) [E, 2-{2-[2-(4-Nitrophenylsulfinyl)-ethoxy]-4-methoxyphenyl}-imidazo[4,5-b]pyridine] | 32 | – | – |
| COc1ccc(-c2nc3ncccc3[nH]2)c(OCC[S+]([O-])c2cc(OC)c(OC)cc2C)c1 (centres unmarked) [D, 2-{2-[2-(2-Methyl-4,5-dimethoxyphenylsulfinyl)-ethoxy]-4-methoxyphenyl}-imidazo[4,5-b]pyridine] | 5 | > 300 | 0 out of 6 |
